Experimental data as given in patent publication US10471043B2, “Compounds and methods of treating bacterial infections” (ULTUPHARMA AB, priority 2015, dated 2019).
In brackets after ≈: the same amount, converted by molar mass. Like-named read-outs stand apart in the source and are kept apart here.

Key:
[1] = cited from earlier work
[2] = system: Staphylococcus aureus strain LMG15975; experiment: MIC by broth micro-dilution, AM3/PBS 1:1; assay type: cell-based
Experimental: (§1) At first (Table 1), MIC is determined by broth micro-dilution method. The test medium is Antibiotic Medium 3 (AM3; Difco Ltd) mixed with Phosphate Buffered Saline (PBS) in proportions 1:1. Selected MIC values are verified using cation-adjusted Mueller Hinton Broth (MHB; BD). Cell concentration of tested pathogen is adjusted to between 3 and 5×10^5 cells per ml. To verify cell concentration of tested pathogen, viable cell counts are performed directly after each MIC-test by dilution method with PBS as a dilution solvent. Cells are counted on the agar plates with 50% strength Vegetable Peptone Broth (50% VPB; Oxoid Ltd) after 16 to 20 h of incubation at 37° C.
(§2) Cells of pathogen suspended in test medium are distributed to the wells and the plates are incubated for 16 to 20 h at 37° C. Negative controls are wells with the test medium only and positive controls are wells with the pathogen in test medium. The MIC is defined as the lowest concentration of each compound with no visible growth of pathogen.
Example compounds of formula I were examined for antibacterial activity against the Gram-positive bacterium Staphylococcus aureus strain LMG15975 using the above described method (Table 1).

[3] = Cytotoxicity assay, WST-8; conditions: human, HepG2 cells, CC50 (μg/mL)
A. baumannii = experiment: MIC by broth micro-dilution; assay type: cell-based; conditions: Acinetobacter baumannii, A. baumannii (G−), Table 2; read-out: MIC (μg/ml) A. baumannii
Experimental: as §1, §2

Bacillus cereus = experiment: MIC by broth micro-dilution; assay type: cell-based; conditions: Table 4, read-out: MIC (μg/ml) B. cereus
Experimental: as §1, §2

M. frederiksbergense = experiment: MIC by broth micro-dilution; assay type: cell-based; conditions: Table 4; read-out: MIC (μg/ml) M. frederiksbergense
Experimental: as §1, §2

Mycobacterium smegmatis = experiment: MIC by broth micro-dilution; assay type: cell-based; conditions: Mycolicibacterium smegmatis; Table 4; read-out: MIC (μg/ml) M. smegmatis
Experimental: as §1, §2

[4] = system: mupirocin-resistant strains of Staphylococcus aureus; experiment: MIC against mupirocin-resistant strains; assay type: cell-based
Experimental: as §1, §2

in vitro = conditions: human, CC50 (μg/mL)
S. aureus = experiment: Antimicrobial Susceptibility Test by Broth Microdilution, M07-A9 CLSI; assay type: cell-based; conditions: Staphylococcus aureus
S. epidermidis [5] = experiment: as above; assay type: cell-based; conditions: Staphylococcus epidermidis
Proteus mirabilis = experiment: MIC panel of Gram-negative bacteria (Table 7); assay type: cell-based
S. typhimurium = experiment: MIC panel of Gram-negative bacteria (Table 7); assay type: cell-based; conditions: Salmonella enterica; EN0466 S. typhimurium G− TH6509
Serratia marescens = experiment: MIC panel of Gram-negative bacteria (Table 7); assay type: cell-based; conditions: EN0454 Serratia marescens G− PKL 3692
E. coli = experiment: MIC panel of Gram-negative bacteria (Table 7); assay type: cell-based; conditions: Escherichia coli
A. Pittii/nosocomialis = experiment: MIC panel of Gram-negative bacteria (Table 7); assay type: cell-based; conditions: Acinetobacter pittii; EN0180 A. Pittii/nosocomialis G−
Micrococcus luteus = experiment: MIC panel of Gram-negative bacteria (Table 7); assay type: cell-based; conditions: EN0455 Micrococcus luteus G+ PKL 3693
E. faecium = experiment: Antimicrobial Susceptibility Test by Broth Microdilution, M07-A9 CLSI; assay type: cell-based; conditions: Enterococcus faecium; E. faecium 7, Vancomycin-resistant, Table 5; read-out: MIC
K. oxytoca = experiment: MIC panel of Gram-negative bacteria (Table 7); assay type: cell-based; conditions: Klebsiella oxytoca; EN0392 K. oxytoca G−
K. pneumoniae = experiment: MIC panel of Gram-negative bacteria (Table 7); assay type: cell-based; conditions: Klebsiella pneumoniae
Enterobacter aerogenes = experiment: MIC panel of Gram-negative bacteria (Table 7); assay type: cell-based; conditions: Klebsiella aerogenes; EN0461 Enterobacter aerogenes G− PKL 3706
S. epidermidis [6] = experiment: MIC panel of Gram-negative bacteria (Table 7); assay type: cell-based; conditions: Staphylococcus epidermidis; EN0456 S. epidermidis G+ PKL 3694
A. baumanii = experiment: MIC panel of Gram-negative bacteria (Table 7); assay type: cell-based
P. aeruginosa = experiment: MIC panel of Gram-negative bacteria (Table 7); assay type: cell-based; conditions: Pseudomonas aeruginosa
E. faecalis = experiment: Antimicrobial Susceptibility Test by Broth Microdilution, M07-A9 CLSI; assay type: cell-based; conditions: Enterococcus faecalis
Citrobacter sp. = experiment: MIC panel of Gram-negative bacteria (Table 7); assay type: cell-based; conditions: EN0465 Citrobacter sp. G− PKL 3710
[7] = Kong et al 2005; cited from earlier work
Dutch Elm disease fungus = conditions: Ayer & Villar 1985; cited from earlier work
Pyricularia oryziae = conditions: Miyakado et al 1982; cited from earlier work
[8] = reference markers for Caco-2 assay
[9] = LMG15975, S. aureus LMG15975, Table 1, read-out: MIC
[10] = LMG15975, S. aureus LMG15975, Table 1, read-out: MIC (μg/ml)
[11] = LMG15975, Table 4, read-out: MIC (μg/ml) S. aureus
[12] = S. aureus V55, mupirocin-resistant
[13] = S. aureus V86, mupirocin-resistant
[14] = ATCC29213, S. aureus ATCC29213, QC strain, Table 5
[15] = S. aureus 7280, Methicillin-resistant
[16] = S. aureus MO17, Methicillin-sensitive, Table 5
[17] = S. aureus PICI, Methicillin-resistant, Table 5
[18] = S. epidermis RO7, Methicillin-sensitive, Table 5
[19] = S. epidermis Staph 1, Methicillin-resistant
[20] = S. epidermis TA12, Methicillin-resistant, Table 5
[21] = LMG15975, S. aureus LMG 15975 (SLU), Methicillin-resistant, Table 5, read-out: MIC (μg/mL)
[22] = E. faecalis 14, Vancomycin-resistant
[23] = E. faecalis 24, Vancomycin-sensitive, Table 5

## Nc1nc2c(ncn2COCCO)c(=O)[nH]1 [Acyclovir]
[1]; [8]
  absorption in man (%): 30%

## CCCCCCCCCC1CC(O)=C(C(=O)CCCC)C(=O)O1 (stereo not shown) [Ex. 8, 4-hydroxy-6-nonyl-3-pentanoyl-5,6-dihydro-2H-pyran-2-one]
[2]; LMG15975, S. aureus (G+), Table 2, read-out: MIC (μg/ml) S. aureus
  MIC: < 0.6 µg/mL
[2]; [9]
  MIC: ≤ 1.9 µM
[2]; [10]
  MIC: ≤ 0.6 µg/mL
[2]; [11]
  MIC: ≤ 0.6 µg/mL
[3]; HepG2, 48 hours, Table 1
  CC50 at 48 h: 36 µM
A. baumannii
  MIC: 8 to 16 µg/mL (≈ 24.7 to 49.3 µM)
Bacillus cereus
  MIC: ≤ 1 µg/mL
M. frederiksbergense
  MIC: ≤ 4 µg/mL
Mycobacterium smegmatis
  MIC: ≤ 4 µg/mL
[4]; [12]
  MIC: ≤0.1 µg/mL
[4]; [13]
  MIC: ≤0.1 µg/mL
[4]; Staphylococcus aureus, S. aureus V321, mupirocin-resistant, read-out: MIC
  MIC: ≤ 0.1 µg/mL

## CCCCCCCCCCC1CC(O)=C(C(=O)CC)C(=O)O1 (stereo not shown) [Ex. 10, 6-decyl-4-hydroxy-3-propionyl-5,6-dihydro-2H-pyran-2-one]
[2]; [9]
  MIC: 1.3 to 2.6 µM
[2]; [10]
  MIC: 0.4 to 0.8 µg/mL
In vitro
  CC50 at 48 h: 60 µM
Bacillus cereus
  MIC: ≤ 1 µg/mL
M. frederiksbergense
  MIC: ≤ 0.5 µg/mL

## CCCCCCCCCC1CC(O)=C(C(=O)CC2CCCCC2)C(=O)O1 (stereo not shown) [Ex. 14, 3-(2-cyclohexylacetyl)-4-hydroxy-6-nonyl-5,6-dihydro-2H-pyran-2-one]
S. aureus; [14]
  MIC: 2 µg/mL (≈ 5.49 µM)
S. aureus; [15]
  MIC: 2 µg/mL (≈ 5.49 µM)
S. aureus; [16]
  MIC: 1 µg/mL (≈ 2.74 µM)
S. aureus; [17]
  MIC: 1 µg/mL (≈ 2.74 µM)
S. epidermidis [5]; [18]
  MIC: 0.5 µg/mL (≈ 1.37 µM)
S. epidermidis [5]; [19]
  MIC: 0.5 µg/mL (≈ 1.37 µM)
S. epidermidis [5]; [20]
  MIC: 0.5 µg/mL (≈ 1.37 µM)
[2]; [21]
  MIC: 0.25 µg/mL
[2]; [9]
  MIC: ≤ 0.3 µM
[2]; [10]
  MIC: 0.25 µg/mL
[2]; [11]
  MIC: ≤ 0.1 µg/mL
Proteus mirabilis; EN0445 P. mirabilis ST19 G−
  MIC: >64 µg/mL
Proteus mirabilis; EN0457 Proteus mirabilis G− PKL 3695, read-out: MIC
  MIC: > 64 µg/mL
[3]; HepG2, 48 hours, Table 1
  CC50 at 48 h: 14 µM
[3]; HepG2, Table 5
  CC50 at 48 h: 14 µM
S. typhimurium
  MIC: > 64 µg/mL
Serratia marescens
  MIC: > 64 µg/mL
E. coli; EN001 E. coli WT, ENABLE Primary MIC panel
  MIC: > 64 µg/mL
E. coli; EN002 E. coli DtolC, ENABLE Primary MIC panel
  MIC: > 64 µg/mL
E. coli; EN003 E. coli D22 (lps mut), ENABLE Primary MIC panel
  MIC: > 64 µg/mL
E. coli; EN0012 E. coli, ENABLE L2C MIC panel
  MIC: > 64 µg/mL
E. coli; EN0013 E. coli Del-tolC, ENABLE L2C MIC panel
  MIC: 16 µg/mL (≈ 43.9 µM)
E. coli; EN0458 E. coli B G− PKL 3698
  MIC: > 64 µg/mL
Bacillus cereus
  MIC: ≤ 1 µg/mL
A. Pittii/nosocomialis
  MIC: > 64 µg/mL
Micrococcus luteus
  MIC: 0.5 µg/mL (≈ 1.37 µM)
E. faecium
  MIC: 1 µg/mL (≈ 2.74 µM)
K. oxytoca
  MIC: > 64 µg/mL
K. pneumoniae; EN006 K. pneumoniae WT, ENABLE Primary MIC panel
  MIC: > 64 µg/mL
K. pneumoniae; EN0010 K. pneumoniae, ENABLE L2C MIC panel (isogenic efflux pairs)
  MIC: > 64 µg/mL
K. pneumoniae; EN0011 K. pneumoniae Efflux mut, ENABLE L2C MIC panel
  MIC: > 64 µg/mL
Enterobacter aerogenes
  MIC: > 64 µg/mL
S. epidermidis [6]
  MIC: 1 µg/mL (≈ 2.74 µM)
A. baumanii; Acinetobacter baumannii, EN007 A. baumanii WT, ENABLE Primary MIC panel, read-out: MIC
  MIC: > 64 µg/mL
A. baumanii; EN0016 A. baumanii, ENABLE L2C MIC panel
  MIC: >64 µg/mL
A. baumanii; EN0017 A. baumanii Efflux mut, ENABLE L2C MIC panel
  MIC: >64 µg/mL
P. aeruginosa; EN004 P. aeruginosa WT, ENABLE Primary MIC panel
  MIC: > 64 µg/mL
P. aeruginosa; EN005 P. aeruginosa Efflux mut, ENABLE Primary MIC panel
  MIC: > 64 µg/mL
P. aeruginosa; EN0014 P. aeruginosa, ENABLE L2C MIC panel
  MIC: > 64 µg/mL
P. aeruginosa; EN0015 P. aeruginosa Efflux mut, ENABLE L2C MIC panel
  MIC: > 64 µg/mL
P. aeruginosa; EN0422 P. aeruginosa G−
  MIC: > 64 µg/mL
P. aeruginosa; EN0459 P. aeruginosa G− PKL 3699
  MIC: > 64 µg/mL
P. aeruginosa; EN0460 P. aeruginosa G− PKL 3704
  MIC: > 64 µg/mL
E. faecalis; [22]
  MIC: 1 µg/mL (≈ 2.74 µM)
E. faecalis; [23]
  MIC: 1 µg/mL (≈ 2.74 µM)
Citrobacter sp.
  MIC: > 64 µg/mL
[4]; [12]
  MIC: ≤0.1 µg/mL
[4]; [13]
  MIC: ≤0.1 µg/mL
[4]; S. aureus V321, mupirocin-resistant
  MIC: ≤0.1 µg/mL
[4]; Staphylococcus aureus, S. aureus V308, mupirocin-resistant, read-out: MIC
  MIC: ≤ 0.1 µg/mL

## CCCCCCCCCCCC1CC(O)=C(C(=O)CCCC)C(=O)O1 (stereo not shown) [Ex. 17, 4-hydroxy-3-pentanoyl-6-undecyl-5,6-dihydro-2H-pyran-2-one]
S. aureus; [14]
  MIC: 16 µg/mL (≈ 45.4 µM)
S. aureus; [15]
  MIC: 8 µg/mL (≈ 22.7 µM)
S. aureus; [16]
  MIC: 4 µg/mL (≈ 11.3 µM)
S. aureus; [17]
  MIC: 8 µg/mL (≈ 22.7 µM)
S. epidermidis [5]; [18]
  MIC: 0.5 µg/mL (≈ 1.42 µM)
S. epidermidis [5]; [19]
  MIC: 0.5 µg/mL (≈ 1.42 µM)
S. epidermidis [5]; [20]
  MIC: 0.5 µg/mL (≈ 1.42 µM)
[2]; [21]
  MIC: 0.1 to 0.2 µg/mL
[2]; [9]
  MIC: 0.3 to 0.6 µM
[2]; [10]
  MIC: 0.1 to 0.2 µg/mL
[3]; HepG2, 48 hours, Table 1
  CC50 at 48 h: 12 µM
[3]; HepG2, Table 5
  CC50 at 48 h: 12 µM
Bacillus cereus
  MIC: ≤ 1 µg/mL
E. faecium
  MIC: 1 µg/mL (≈ 2.84 µM)
E. faecalis; [22]
  MIC: 1 µg/mL (≈ 2.84 µM)
E. faecalis; [23]
  MIC: 1 µg/mL (≈ 2.84 µM)

## N[C@@H](Cc1ccccc1)C(=O)O [L-Phenylalanine]
[1]; [8]
  absorption in man (%): 100%

## OC[C@@H](O)[C@@H](O)[C@H](O)[C@H](O)CO [Mannitol]
[1]; in vivo
  absorption in man (%): 16%

## CN(Cc1cnc2nc(N)nc(N)c2n1)c1ccc(C(=O)N[C@@H](CCC(=O)O)C(=O)O)cc1 [Methotrexate]
[1]; in vivo
  absorption in man (%): 20%

## CCCCCCc1c(O)cc(CCCCC)oc1=O [pseudopyronine A]
[7]
  antibacterial activities: moderate to poor

## CCCCCCCc1cc(O)c(CCCCCC)c(=O)o1 [pseudopyronine B]
[7]
  antibacterial activities: moderate to poor

## lachnellulic acid
Dutch Elm disease fungus
  activity against the Dutch Elm disease fungus: active

## podoblastin A
Pyricularia oryziae
  activity against the fungus Pyricularia oryziae: active
